From patent publication US7994185B2, “Benzene sulfonamide thiazole and oxazole compounds” (Glaxo Smith Kline LLC, priority 2008, dated 2011)
Where two headings read alike, the source gives them in different places.

Key:
[1] = target: T1, BRAFV600E full-length (amino acids 2-766) (Homo sapiens, UniProt P15056, V600E); test: B-Raf Accelerated MEK ATPase assay (BRAMA); format: biochemical; details: later runs, average pIC50 for the one or more runs, categorized
T1 construct: His6-tagged BRAFV600E full-length (amino acids 2-766); His6; made in house; host or cells: baculovirus expression system (insect cells)
How it was run: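 Coupled-enzyme readout: ADP generated by MEK-mediated ATP hydrolysis, uncoupled from ERK phosphorylation, is linked to NADH oxidation through pyruvate kinase and lactate dehydrogenase.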

[2] = system: Human colon tumor cells (Colo205); test: Cell growth inhibition assay (CellTiter-Glo), Colo205; format: cell-based; details: COLO 205, Table 2b, later runs, average for the one or more runs, categorized, read-out: IC50 for Colo205
How it was run: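 Luminescent ATP read-out (CellTiter-Glo) served as a proxy for cell number; percent growth inhibition was calculated against DMSO vehicle wells. Cells were treated for 3 days at 37 °C with serially diluted compound, 0.2% DMSO final.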

[3] = system: Human melanoma cancer cells (SK-MEL-28); test: Cell growth inhibition assay (CellTiter-Glo), SK-MEL-28; format: cell-based; details: SK-MEL-28, Table 3b, later runs, average for the one or more runs, categorized, read-out: IC50 for SK-MEL-28
[4] = Table 1b, read-out: B-Raf pIC50 (converted)

T1 sequence (P15056 2-766 V600E): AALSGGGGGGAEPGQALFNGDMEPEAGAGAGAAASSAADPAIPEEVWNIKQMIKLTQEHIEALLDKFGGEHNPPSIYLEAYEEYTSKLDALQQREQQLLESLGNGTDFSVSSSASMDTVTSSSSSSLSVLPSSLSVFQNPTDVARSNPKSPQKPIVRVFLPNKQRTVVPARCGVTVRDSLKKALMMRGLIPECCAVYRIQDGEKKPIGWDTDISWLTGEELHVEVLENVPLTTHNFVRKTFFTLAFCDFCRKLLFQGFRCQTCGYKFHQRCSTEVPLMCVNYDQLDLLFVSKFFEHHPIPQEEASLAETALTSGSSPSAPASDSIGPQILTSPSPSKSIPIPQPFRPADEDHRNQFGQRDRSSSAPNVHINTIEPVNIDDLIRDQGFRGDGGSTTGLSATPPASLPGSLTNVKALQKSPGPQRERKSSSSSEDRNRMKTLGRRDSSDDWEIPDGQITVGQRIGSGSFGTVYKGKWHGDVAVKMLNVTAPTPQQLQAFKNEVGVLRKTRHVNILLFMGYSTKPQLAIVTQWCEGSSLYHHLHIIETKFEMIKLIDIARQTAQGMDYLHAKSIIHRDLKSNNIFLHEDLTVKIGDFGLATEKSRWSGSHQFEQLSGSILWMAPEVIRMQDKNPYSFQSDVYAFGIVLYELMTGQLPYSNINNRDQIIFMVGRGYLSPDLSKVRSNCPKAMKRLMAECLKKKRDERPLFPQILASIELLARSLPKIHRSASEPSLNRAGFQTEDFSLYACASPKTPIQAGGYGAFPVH

| IC50 [1, 4] [nM] | SMILES | IC50 [2] [nM] | IC50 [3] [nM] | IC50 ([1]; B-Raf pIC50, Table 1b) [nM] |
| --- | --- | --- | --- | --- |
| 3.16 to 31.6 | Cc1nccc(-c2sc(C(C)(C)C)nc2-c2cccc(NS(=O)(=O)c3cccc(F)c3)c2F)n1 [Example 222, N-{3-[2-(1,1-dimethylethyl)-5-(2-methyl-4-pyrimidinyl)-1,3-thiazol-4-yl]-2-fluorophenyl}-3-fluorobenzenesulfonamide] | < 100 | < 100 | – |
| – | CC(C)(C)c1nc(-c2cccc(NS(=O)(=O)c3cccc(F)c3)c2F)c(-c2ccncn2)s1 [Example 223, N-{3-[2-(1′-dimethylethyl)-5-(4-pyrimidinyl)-1,3-thiazol-4-yl]-2-fluorophenyl}-3-fluorobenzenesulfonamide] | < 100 | < 100 | ≤ 3.16 |
| – | CC(C)(C)c1nc(-c2cccc(NS(=O)(=O)c3ccccc3F)c2F)c(-c2ccncn2)s1 [Example 224, N-{3-[2-(1,1-dimethylethyl)-5-(4-pyrimidinyl)-1,3-thiazol-4-yl]-2-fluorophenyl}-2-fluorobenzenesulfonamide] | < 100 | < 100 | ≤ 3.16 |
| 3.16 to 31.6 | Cc1nccc(-c2sc(C(C)(C)C)nc2-c2cccc(NS(=O)(=O)c3ccccc3F)c2F)n1 [Example 225, N-{3-[2-(1,1-dimethylethyl)-5-(2-methyl-4-pyrimidinyl)-1,3-thiazol-4-yl]-2-fluorophenyl}-2-fluorobenzenesulfonamide] | < 100 | < 100 | – |
| – | CCOC(=O)CCc1nccc(-c2sc(C(C)(C)C)nc2-c2cccc(NS(=O)(=O)c3c(F)cccc3F)c2F)n1 [Example 226, ethyl 3-{4-[4-(3-{[(2,6-difluorophenyl)sulfonyl]amino}-2-fluorophenyl)-2-(1,1-dimethylethyl)-1,3-thiazol-5-yl]-2-pyrimidinyl}propanoate] | < 100 | < 100 | ≤ 3.16 |
| – | O=S(=O)(Nc1cccc(-c2nc(N3CCOCC3)sc2-c2ccncn2)c1F)c1cc(F)ccc1F [Example 227, 2,5-difluoro-N-{2-fluoro-3-[2-(4-morpholinyl)-5-(4-pyrimidinyl)-1,3-thiazol-4-yl]phenyl}benzenesulfonamide] | < 100 | < 100 | ≤ 3.16 |
| – | CC(C)(C)c1nc(-c2cccc(NS(=O)(=O)c3cc(F)ccc3F)c2Cl)c(-c2ccncn2)s1 [Example 228, N-{2-chloro-3-[2-(1,1-dimethylethyl)-5-(4-pyrimidinyl)-1,3-thiazol-4-yl]phenyl}-2,5-difluorobenzenesulfonamide] | < 100 | < 100 | ≤ 3.16 |
| 3.16 to 31.6 | Cc1nccc(-c2sc(C(C)(C)C)nc2-c2cccc(NS(=O)(=O)c3cc(F)ccc3F)c2Cl)n1 [Example 229, N-{2-chloro-3-[2-(1,1-dimethylethyl)-5-(2-methyl-4-pyrimidinyl)-1,3-thiazol-4-yl]phenyl}-2,5-difluorobenzenesulfonamide] | < 100 | < 100 | – |
| – | CC(C)(C)c1nc(-c2cccc(NS(=O)(=O)c3cccnc3)c2F)c(-c2ccnc(N)n2)s1 [Example 230, N-{3-[5-(2-amino-4-pyrimidinyl)-2-(1,1-dimethylethyl)-1,3-thiazol-4-yl]-2-fluorophenyl}-3-pyridinesulfonamide] | < 100 | < 100 | ≤ 3.16 |
| – | CC(C)(C)c1nc(-c2cccc(NS(=O)(=O)c3ccco3)c2F)c(-c2ccnc(N)n2)s1 [Example 231, N-{3-[5-(2-amino-4-pyrimidinyl)-2-(1,1-dimethylethyl)-1,3-thiazol-4-yl]-2-fluorophenyl}-2-furansulfonamide] | < 100 | < 100 | ≤ 3.16 |
| – | CC(C)(C)c1nc(-c2cccc(NS(=O)(=O)c3cccs3)c2F)c(-c2ccnc(N)n2)s1 [Example 232, N-{3-[5-(2-amino-4-pyrimidinyl)-2-(1,1-dimethylethyl)-1,3-thiazol-4-yl]-2-fluorophenyl}-2-thiophenesulfonamide] | < 100 | < 100 | ≤ 3.16 |
| – | CC(C)(C)c1nc(-c2cccc(NS(=O)(=O)c3ccsc3)c2F)c(-c2ccnc(N)n2)s1 [Example 233, N-{3-[5-(2-amino-4-pyrimidinyl)-2-(1,1-dimethylethyl)-1,3-thiazol-4-yl]-2-fluorophenyl}-3-thiophenesulfonamide] | < 100 | < 100 | ≤ 3.16 |
| – | CC(C)(C)c1nc(-c2cccc(NS(=O)(=O)c3ccoc3)c2F)c(-c2ccnc(N)n2)s1 [Example 234, N-{3-[5-(2-amino-4-pyrimidinyl)-2-(1,1-dimethylethyl)-1,3-thiazol-4-yl]-2-fluorophenyl}-3-furansulfonamide] | < 100 | < 100 | ≤ 3.16 |
| 3.16 to 31.6 | Cc1csc(S(=O)(=O)Nc2cccc(-c3nc(C(C)(C)C)sc3-c3ccnc(N)n3)c2F)c1 [Example 235, N-{3-[5-(2-amino-4-pyrimidinyl)-2-(1,1-dimethylethyl)-1,3-thiazol-4-yl]-2-fluorophenyl}-4-methyl-2-thiophenesulfonamide] | < 100 | < 100 | – |
| – | CC(C)(C)c1nc(-c2cccc(NS(=O)(=O)c3c(F)cccc3F)c2Cl)c(-c2ccnc(N)n2)s1 [Example 236, N-{3-[5-(2-amino-4-pyrimidinyl)-2-(1,1-dimethylethyl)-1,3-thiazol-4-yl]-2-chlorophenyl}-2,6-difluorobenzenesulfonamide] | < 100 | < 100 | ≤ 3.16 |
| 3.16 to 31.6 | CC(C)(C)c1nc(-c2cccc(NS(=O)(=O)c3c(F)cccc3F)c2Cl)c(-c2ccncn2)s1 [Example 237, N-{2-chloro-3-[2-(1,1-dimethylethyl)-5-(4-pyrimidinyl)-1,3-thiazol-4-yl]phenyl}-2,6-difluorobenzenesulfonamide] | < 100 | < 100 | – |
| – | Nc1nccc(-c2sc(C3CCOCC3)nc2-c2cccc(NS(=O)(=O)c3c(F)cccc3F)c2Cl)n1 [Example 238, N-{3-[5-(2-amino-4-pyrimidinyl)-2-(tetrahydro-2H-pyran-4-yl)-1,3-thiazol-4-yl]-2-chlorophenyl}-2,6-difluorobenzenesulfonamide] | < 100 | < 100 | ≤ 3.16 |
| 3.16 to 31.6 | Cc1nccc(-c2sc(C(C)(C)C)nc2-c2cccc(NS(=O)(=O)c3c(F)cccc3F)c2Cl)n1 [Example 239, N-{2-chloro-3-[2-(1,1-dimethylethyl)-5-(2-methyl-4-pyrimidinyl)-1,3-thiazol-4-yl]phenyl}-2,6-difluorobenzenesulfonamide] | < 100 | < 100 | – |
| – | O=S(=O)(Nc1cccc(-c2nc(N3CCOCC3)sc2-c2ccncn2)c1Cl)c1cc(F)ccc1F [Example 240, N-{2-chloro-3-[2-(4-morpholinyl)-5-(4-pyrimidinyl)-1,3-thiazol-4-yl]phenyl}-2,5-difluorobenzenesulfonamide] | < 100 | < 100 | ≤ 3.16 |
| – | CC(C)(C)c1nc(-c2cccc(NS(=O)(=O)c3cc(F)ccc3F)c2Cl)c(-c2ccnc(N)n2)s1 [Example 241, N-{3-[5-(2-amino-4-pyrimidinyl)-2-(1,1-dimethylethyl)-1,3-thiazol-4-yl]-2-chlorophenyl}-2,5-difluorobenzenesulfonamide] | < 100 | < 100 | ≤ 3.16 |
| – | Nc1nccc(-c2sc(C3CCOCC3)nc2-c2cccc(NS(=O)(=O)c3cc(F)ccc3F)c2Cl)n1 [Example 242, N-{3-[5-(2-amino-4-pyrimidinyl)-2-(tetrahydro-2H-pyran-4-yl)-1,3-thiazol-4-yl]-2-chlorophenyl}-2,5-difluorobenzenesulfonamide] | < 100 | < 100 | ≤ 3.16 |
| – | O=S(=O)(Nc1cccc(-c2nc(C3CCOCC3)sc2-c2ccncn2)c1Cl)c1cc(F)ccc1F [Example 243, N-{2-chloro-3-[5-(4-pyrimidinyl)-2-(tetrahydro-2H-pyran-4-yl)-1,3-thiazol-4-yl]phenyl}-2,5-difluorobenzenesulfonamide] | < 100 | < 100 | ≤ 3.16 |
| – | O=S(=O)(Nc1cccc(-c2nc(C3CCOCC3)sc2-c2ccncn2)c1F)c1cc(F)ccc1F [Example 244, 2,5-difluoro-N-{2-fluoro-3-[5-(4-pyrimidinyl)-2-(tetrahydro-2H-pyran-4-yl)-1,3-thiazol-4-yl]phenyl}benzenesulfonamide] | < 100 | < 100 | ≤ 3.16 |
| – | Nc1nccc(-c2sc(C3CCOCC3)nc2-c2cccc(NS(=O)(=O)c3cc(F)ccc3F)c2F)n1 [Example 245, N-{3-[5-(2-amino-4-pyrimidinyl)-2-(tetrahydro-2H-pyran-4-yl)-1,3-thiazol-4-yl]-2-fluorophenyl}-2,5-difluorobenzenesulfonamide] | < 100 | < 100 | ≤ 3.16 |
| 3.16 to 31.6 | Cc1nccc(-c2sc(C3CCOCC3)nc2-c2cccc(NS(=O)(=O)c3cc(F)ccc3F)c2F)n1 [Example 246, 2,5-difluoro-N-{2-fluoro-3-[5-(2-methyl-4-pyrimidinyl)-2-(tetrahydro-2H-pyran-4-yl)-1,3-thiazol-4-yl]phenyl}benzenesulfonamide] | < 100 | < 100 | – |
